Patent US20230159511A1, “TETRAHYDROISOQUINOLINE COMPOUNDS AS NRF2 ACTIVATORS” (C4X Discovery Limited, priority 2020, published 2023)

The compounds below were run against T1, human KEAP1 (N-term, residues 321-609) (Homo sapiens, UniProt Q14145) (assay: KEAP1 Kelch Fluorescence Polarization (FP) Assay). Conditions: inhibition of Kelch domain-NRF2 interaction; 2 nM FITC-labelled NRF2 peptide, 25 nM KEAP1, 1 h room temperature; compounds below 10 nM cannot be differentiated.
T1 construct: human KEAP1 (N-term, residues 321-609)
T1 sequence (Q14145 321-609): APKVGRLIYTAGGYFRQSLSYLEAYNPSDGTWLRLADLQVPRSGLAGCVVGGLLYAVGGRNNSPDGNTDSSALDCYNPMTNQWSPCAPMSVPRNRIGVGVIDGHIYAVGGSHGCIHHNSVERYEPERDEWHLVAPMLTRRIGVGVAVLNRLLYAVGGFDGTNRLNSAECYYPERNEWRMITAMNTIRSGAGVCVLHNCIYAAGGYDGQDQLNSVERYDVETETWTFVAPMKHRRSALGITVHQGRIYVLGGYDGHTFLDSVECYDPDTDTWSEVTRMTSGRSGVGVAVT
Assay type: binding
Experimental: KEAP1 Kelch Fluorescence Polarization (FP) Assay Method
Inhibition of the Kelch domain-NRF2 interaction was determined using a fluorescence polarization-based competition assay in a black 384-well microplate. Compounds were tested at a starting concentration of 10 μM serially diluted 1:3 to generate a 12-point dose response curve on the Biomek FX robot. Each well contained 2 nM FITC-labelled NRF2 peptide (FITC-LDEETGEFL-NH2) and 25 nM human KEAP1 (N-term, residues 321-609) enzyme in a final volume of 20 μL of assay buffer (50 mM Tris-HCl pH 8.0, 100 mM NaCl, 5 mM MgCl2, 0.005% Tween-20, 0.005% BSA, 0.5% DMSO) in the presence of varying concentrations of test compound. Unlabelled peptide (LDEETGEFL-NH2) at 50 μM (negative control) and 0.5% DMSO (positive control) was used to determine the assay window.
After 1 h at room temperature, fluorescence polarization (excitation 470 nm/emission 530 nm) was measured using an Envision plate reader. IC50 values were determined by fitting the data to a four parameter logistic fit using XLfit or XE Runner within ActivityBase. The assay limit is such that compounds below 10 nM cannot be differentiated.
`CNC(=O)[C@H]1CCCC[C@H]1C(=O)N1CCc2cccc(OCc3cnccn3)c2[C@H]1CN1C(=O)c2ccccc2C1=O` [Example 27, (1S,2R)-2-((S)-1-((1,3-dioxoisoindolin-2-yl)methyl)-8-(pyrazin-2-ylmethoxy)-1,2,3,4-tetrahydroisoquinoline-2-carbonyl)-N-methylcyclohexane-1-carboxamide] was tested, and the IC50 was 565 nM.
Work on `CNC(=O)N1CCCC[C@H]1C(=O)N1CCc2cccc(O[C@H]3CCN(C(=O)c4cncs4)C3)c2[C@H]1CN1C(=O)c2ccccc2C1=O` [Example 28, (S)-2-((S)-1-((1,3-dioxoisoindolin-2-yl)methyl)-8-(((S)-1-(thiazole-5-carbonyl)pyrrolidin-3-yl)oxy)-1,2,3,4-tetrahydroisoquinoline-2-carbonyl)-N-methylpiperidine-1-carboxamide] yielded an IC50 of 43 nM.
With `CCCNC(=O)[C@H]1CCCC[C@H]1C(=O)N1CCc2cccc(O[C@H]3CCN(C(=O)c4cncs4)C3)c2[C@H]1CN1C(=O)c2ccccc2C1=O` [Example 29, (1S,2R)-2-((S)-1-((1,3-dioxoisoindolin-2-yl)methyl)-8-(((S)-1-(thiazole-5-carbonyl)pyrrolidin-3-yl)oxy)-1,2,3,4-tetrahydroisoquinoline-2-carbonyl)-N-propylcyclohexane-1-carboxamide] the IC50 was 166 nM.
With `COCCNC(=O)[C@H]1CCCC[C@H]1C(=O)N1CCc2cccc(O[C@H]3CCN(C(=O)c4cncs4)C3)c2[C@H]1CN1C(=O)c2ccccc2C1=O` [Example 30, (1S,2R)-2-((S)-1-((1,3-dioxoisoindolin-2-yl)methyl)-8-(((S)-1-(thiazole-5-carbonyl)pyrrolidin-3-yl)oxy)-1,2,3,4-tetrahydroisoquinoline-2-carbonyl)-N-(2-methoxyethyl)cyclo-hexane-1-carboxamide] the IC50 was 215 nM.
`O=C(NCC(F)F)[C@H]1CCCC[C@H]1C(=O)N1CCc2cccc(O[C@H]3CCN(C(=O)c4cncs4)C3)c2[C@H]1CN1C(=O)c2ccccc2C1=O` [Example 31, (1S,2R)-N-(2,2-difluoroethyl)-2-((S)-1-((1,3-dioxoisoindolin-2-yl)methyl)-8-(((S)-1-(thiazole-5-carbonyl)pyrrolidin-3-yl)oxy)-1,2,3,4-tetrahydroisoquinoline-2-carbonyl)cyclohexane-1-carboxamide] showed an IC50 of 539 nM.
Compound `O=C(NCC(F)(F)F)[C@H]1CCCC[C@H]1C(=O)N1CCc2cccc(O[C@H]3CCN(C(=O)c4cncs4)C3)c2[C@H]1CN1C(=O)c2ccccc2C1=O` [Example 32, (1S,2R)-2-((S)-1-((1,3-dioxoisoindolin-2-yl)methyl)-8-(((S)-1-(thiazole-5-carbonyl)pyrrolidin-3-yl)oxy)-1,2,3,4-tetrahydroisoquinoline-2-carbonyl)-N-(2,2,2-trifluoroethyl)cyclohexane-1-carboxamide] has an IC50 of 2100 nM.
For `N#CCNC(=O)[C@H]1CCCC[C@H]1C(=O)N1CCc2cccc(O[C@H]3CCN(C(=O)c4cncs4)C3)c2[C@H]1CN1C(=O)c2ccccc2C1=O` [Example 33, (1S,2R)-N-(cyanomethyl)-2-((S)-1-((1,3-dioxoisoindolin-2-yl)methyl)-8-(((S)-1-(thiazole-5-carbonyl)pyrrolidin-3-yl)oxy)-1,2,3,4-tetrahydroisoquinoline-2-carbonyl)cyclohexane-1-carboxamide], the IC50 was 1510 nM.
For `O=C(NCCO)[C@H]1CCCC[C@H]1C(=O)N1CCc2cccc(O[C@H]3CCN(C(=O)c4cncs4)C3)c2[C@H]1CN1C(=O)c2ccccc2C1=O` [Example 35, (1S,2R)-2-((S)-1-((1,3-dioxoisoindolin-2-yl)methyl)-8-(((S)-1-(thiazole-5-carbonyl)pyrrolidin-3-yl)oxy)-1,2,3,4-tetrahydroisoquinoline-2-carbonyl)-N-(2-hydroxyethyl)cyclohexane-1-carboxamide], the IC50 was 185 nM.
Compound `CNC(=O)N[C@@H](C)C(=O)N1CCc2cccc(O[C@H]3CCN(C(=O)c4cncs4)C3)c2[C@H]1CN1C(=O)c2ccccc2C1=O` [Example 36, 1-((S)-1-((S)-1-((1,3-dioxoisoindolin-2-yl)methyl)-8-(((S)-1-(thiazole-5-carbonyl)pyrrolidin-3-yl)oxy)-3,4-dihydroisoquinolin-2(1H)-yl)-1-oxopropan-2-yl)-3-methylurea] has an IC50 of 126 nM.
Compound `CNC(=O)[C@H]1CCCC[C@H]1C(=O)N1CCc2c(Cl)ccc(O[C@H]3CCN(C(C)=O)C3)c2[C@H]1CN1C(=O)c2ccccc2C1=O` [Example 37, (1S,2R)-2-((S)-8-(((S)-1-acetylpyrrolidin-3-yl)oxy)-5-chloro-1-((1,3-dioxoisoindolin-2-yl)methyl)-1,2,3,4-tetrahydroisoquinoline-2-carbonyl)-N-methylcyclohexane-1-carboxamide] has an IC50 of 44 nM.
Work on `CNC(=O)[C@H]1CCCC[C@H]1C(=O)N1CCc2cccc(O[C@H]3CCN(C(=O)c4cncs4)C3)c2[C@H]1CNC(=O)C1CC1` [Example 38, (1S,2R)-2-((S)-1-(cyclopropanecarboxamidomethyl)-8-(((S)-1-(thiazole-5-carbonyl)pyrrolidin-3-yl)oxy)-1,2,3,4-tetrahydroisoquinoline-2-carbonyl)-N-methylcyclohexane-1-carboxamide] yielded an IC50 of 8200 nM.
`CNC(=O)[C@H]1CCCC[C@H]1C(=O)N1CCc2cccc(OCc3ccn[nH]3)c2[C@H]1CN1C(=O)c2ccccc2C1=O` [Example 39, (1S,2R)-2-((S)-8-((1H-pyrazol-5-yl)methoxy)-1-((1,3-dioxoisoindolin-2-yl)methyl)-1,2,3,4-tetrahydroisoquinoline-2-carbonyl)-N-methylcyclo hexane-1-carboxamide] was tested, and the IC50 was 3010 nM.
Work on `CNC(=O)CCCC(=O)N1CCc2cccc(O[C@H]3CCN(C(=O)c4cncs4)C3)c2[C@H]1CN1C(=O)c2ccccc2C1=O` [Example 40, 5-((S)-1-((1,3-dioxoisoindolin-2-yl)methyl)-8-(((S)-1-(thiazole-5-carbonyl)pyrrolidin-3-yl)oxy)-3,4-dihydroisoquinolin-2(1H)-yl)-N-methyl-5-oxopentanamide] yielded an IC50 of 523 nM.
For `CNC(=O)CCC(=O)N1CCc2cccc(O[C@H]3CCN(C(=O)c4cncs4)C3)c2[C@H]1CN1C(=O)c2ccccc2C1=O` [Example 41, 4-((S)-1-((1,3-dioxoisoindolin-2-yl)methyl)-8-(((S)-1-(thiazole-5-carbonyl)pyrrolidin-3-yl)oxy)-3,4-dihydroisoquinolin-2(1H)-yl)-N-methyl-4-oxobutanamide], the IC50 was 788 nM.
`O=C(NCCCO)[C@H]1CCCC[C@H]1C(=O)N1CCc2cccc(O[C@H]3CCN(C(=O)c4cncs4)C3)c2[C@H]1CN1C(=O)c2ccccc2C1=O` [Example 43, (1S,2R)-2-((S)-1-((1,3-dioxoisoindolin-2-yl)methyl)-8-(((S)-1-(thiazole-5-carbonyl)pyrrolidin-3-yl)oxy)-1,2,3,4-tetrahydroisoquinoline-2-carbonyl)-N-(3-hydroxypropyl)cyclohexane-1-carboxamide] showed an IC50 of 186 nM.
With `CNC(=O)[C@H]1CCCC[C@H]1C(=O)N1CCc2cccc(O[C@H]3CCN(C(=O)c4cncs4)C3)c2[C@H]1CNC(C)=O` [Example 44] the IC50 was 1170 nM.
For `CNC(=O)[C@H]1CCCC[C@H]1C(=O)N1CCc2cccc(O[C@H]3CCN(C(=O)c4cncs4)C3)c2[C@H]1CN1CCOC1=O` [Example 45, (1S,2R)-N-methyl-2-((S)-1-((2-oxooxazolidin-3-yl)methyl)-8-(((S)-1-(thiazole-5-carbonyl)pyrrolidin-3-yl)oxy)-1,2,3,4-tetrahydroisoquinoline-2-carbonyl)cyclohexane-1-carboxamide], the IC50 was 310 nM.
Work on `CNC(=O)[C@H]1CCCC[C@H]1C(=O)N1CCc2cccc(OCCCC(=O)O)c2[C@H]1CN1C(=O)c2ccccc2C1=O` [Example 46, 4-(((S)-1-((1,3-dioxoisoindolin-2-yl)methyl)-24(1 R,2S)-2-(methylcarbamoyncyclohexane-1-carbonyl)-1,2,3,4-tetrahydroisoquinolin-8-yl)oxy)butanoic acid] yielded an IC50 of 83 nM.
With `CCC(=O)NC[C@@H]1c2c(cccc2O[C@H]2CCN(C(=O)c3cncs3)C2)CCN1C(=O)[C@@H]1CCCC[C@@H]1C(=O)NC` [Example 47, (1S,2R)-N-methyl-2-((S)-1-(propionamidomethyl)-8-(((S)-1-(thiazole-5-carbonyl)pyrrolidin-3-yl)oxy)-1,2,3,4-tetrahydroisoquinoline-2-carbonyl)cyclohexane-1-carboxamide] the IC50 was 5330 nM.
Compound `CNC(=O)[C@H]1CCCCN1C(=O)N1CCc2cccc(O[C@H]3CCN(C(=O)c4cncs4)C3)c2[C@H]1CN1C(=O)c2ccccc2C1=O` [Example 48] has an IC50 of 728 nM.
In the case of `CNC(=O)[C@H]1CCCC[C@H]1C(=O)N1CCc2cccc(OCc3cnn(C)c3)c2[C@H]1CN1C(=O)c2ccccc2C1=O` [Example 49, (1S,2R)-2-((S)-1-((1,3-dioxoisoindolin-2-yl)methyl)-8-((1-methyl-1H-pyrazol-4-yl)methoxy)-1,2,3,4-tetrahydroisoquinoline-2-carbonyl)-N-methylcyclohexane-1-carboxamide], the IC50 is reported as 1800 nM.
For `CNC(=O)[C@H]1CCCC[C@H]1C(=O)N1CCc2c(Br)ccc(O[C@H]3CCN(C(C)=O)C3)c2[C@H]1CN1C(=O)c2ccccc2C1=O` [Example 50, (1S,2R)-2-((S)-8-(((S)-1-acetylpyrrolidin-3-yl)oxy)-5-bromo-1-((1,3-dioxoisoindolin-2-yl)methyl)-1,2,3,4-tetrahydroisoquinoline-2-carbonyl)-N-methylcyclohexane-1-carboxamide], the IC50 was 72 nM.
